We go through 21 molecules from US10370366B2 (Flatley Discovery Lab, LLC, priority 2013, dated 2019).

The target of the test is T1, human F508del CFTR (Homo sapiens, UniProt P13569, DEL508-508).
T1 construct: expressed in transfected cells; host or cells: Fisher Rat Thyroid (FRT) cells
The test is described as follows: CFTR-YFP High Throughput Assay. It counts as cell-based. Conditions: FRT cells expressing human F508del CFTR and YFP; for Emax: EMax normalized to the positive control, read-out: % Efficacy. The essentials:
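FRT cells stably co-expressing human F508del CFTR and halide-sensitive YFP-H148Q/I152L; for correction, compound (2 nM-40 μM) incubated 24-26 h at 37° C, washed, then stimulated 60-120 min at RT with 20 μM forskolin plus 30 μM potentiator P3. Iodide-induced YFP quench (Ex 500/Em 540 nm) recorded; quench rates least-squares fitted.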

Each structure is given as a SMILES string.

T1 sequence (P13569 with tags, fused parts or gaps DEL508-508): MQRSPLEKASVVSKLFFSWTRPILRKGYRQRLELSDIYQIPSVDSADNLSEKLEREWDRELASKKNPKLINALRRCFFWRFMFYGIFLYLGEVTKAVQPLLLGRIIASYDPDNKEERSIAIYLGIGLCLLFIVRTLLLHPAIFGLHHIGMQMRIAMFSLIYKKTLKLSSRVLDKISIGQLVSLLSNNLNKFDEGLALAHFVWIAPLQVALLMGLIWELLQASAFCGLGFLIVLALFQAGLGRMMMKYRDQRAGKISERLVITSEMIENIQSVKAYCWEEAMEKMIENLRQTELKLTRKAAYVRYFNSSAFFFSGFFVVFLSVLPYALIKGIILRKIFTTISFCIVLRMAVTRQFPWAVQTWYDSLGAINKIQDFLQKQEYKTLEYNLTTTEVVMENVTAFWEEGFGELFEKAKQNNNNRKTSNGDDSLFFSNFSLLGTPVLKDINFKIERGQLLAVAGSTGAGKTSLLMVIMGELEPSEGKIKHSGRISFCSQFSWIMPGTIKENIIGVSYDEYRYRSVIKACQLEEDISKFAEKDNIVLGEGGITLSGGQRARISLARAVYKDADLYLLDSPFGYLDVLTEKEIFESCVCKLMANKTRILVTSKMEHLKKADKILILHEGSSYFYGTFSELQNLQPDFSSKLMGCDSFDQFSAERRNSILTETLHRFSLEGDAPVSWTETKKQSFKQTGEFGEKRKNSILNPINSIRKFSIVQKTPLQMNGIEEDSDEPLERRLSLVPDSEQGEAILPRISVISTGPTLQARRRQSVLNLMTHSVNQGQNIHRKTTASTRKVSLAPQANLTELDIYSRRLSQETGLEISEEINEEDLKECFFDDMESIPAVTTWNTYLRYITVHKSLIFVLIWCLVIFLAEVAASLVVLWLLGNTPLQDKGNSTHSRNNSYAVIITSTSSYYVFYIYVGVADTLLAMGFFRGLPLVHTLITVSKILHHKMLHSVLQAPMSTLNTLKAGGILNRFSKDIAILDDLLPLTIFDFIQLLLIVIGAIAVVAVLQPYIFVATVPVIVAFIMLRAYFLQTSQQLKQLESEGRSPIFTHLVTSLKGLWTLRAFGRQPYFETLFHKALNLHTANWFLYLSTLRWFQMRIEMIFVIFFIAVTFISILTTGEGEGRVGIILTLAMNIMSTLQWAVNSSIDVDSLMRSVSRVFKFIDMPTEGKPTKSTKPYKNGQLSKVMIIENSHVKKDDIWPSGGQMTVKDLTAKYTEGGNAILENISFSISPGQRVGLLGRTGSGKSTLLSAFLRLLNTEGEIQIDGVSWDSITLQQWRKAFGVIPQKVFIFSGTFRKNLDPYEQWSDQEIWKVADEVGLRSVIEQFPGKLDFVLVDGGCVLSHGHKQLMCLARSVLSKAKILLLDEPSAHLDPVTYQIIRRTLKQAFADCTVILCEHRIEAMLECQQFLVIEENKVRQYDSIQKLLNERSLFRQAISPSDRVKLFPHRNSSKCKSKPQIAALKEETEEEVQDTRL

As to `CCN(C(=O)Cn1nc(Cc2cccnc2)c2ccc(OC)cc2c1=O)c1ccc2c(c1)OC(F)(F)O2` [Example 52, N-(2,2-difluorobenzo[d][1,3]dioxol-5-yl)-N-ethyl-2-(7-methoxy-1-oxo-4-(pyridin-3-ylmethyl)phthalazin-2(1H)-yl)acetamide], the Emax is 30 to 80%.

Take `CCN(C(=O)c1nn(-c2ccccc2)c(=O)c2c1c1ccccc1n2C)c1ncccn1` [Example 162, N-ethyl-5-methyl-4-oxo-3-phenyl-N-(pyrimidin-2-yl)-4,5-dihydro-3H-pyridazino[4,5-b]indole-1-carboxamide]: the Emax lay within 30 to 80%. Regarding `CCN(C(=O)Cn1nc(Cc2cccnc2)c2c(OC)cccc2c1=O)c1ccc2c(c1)OC(F)(F)O2` [Example 56, N-(2,2-difluorobenzo[d][1,3]dioxol-5-yl)-N-ethyl-2-(5-methoxy-1-oxo-4-(pyridin-3-ylmethyl)phthalazin-2(1H)-yl)acetamide], the Emax lay within 30 to 80%. `CC(C)n1nc(-c2cccc(C#N)c2)c2c3ccccc3n(C)c2c1=O` [Example 240, 3-(3-isopropyl-5-methyl-4-oxo-4,5-dihydro-3H-pyridazino[4,5-b]indol-1-yl)benzonitrile]: the Emax was in the range of 30 to 80% and the EC50 (commonly the concentration at which the effect is half-maximal) is greater than 20 µM. For the molecule `CCN(C(=O)c1nn(CC(=O)N2CCCCC2)c(=O)c2c1c1ccccc1n2C)c1ccccc1` [Example 214, N-ethyl-5-methyl-4-oxo-3-(2-oxo-2-(piperidin-1-yl)ethyl)-N-phenyl-4,5-dihydro-3H-pyridazino[4,5-b]indole-1-carboxamide], the Emax was 30 to 80% and the EC50 was less than 10 µM. The like results for `CCc1ccc(N(CC)C(=O)Cn2nc(-c3ccc(S(N)(=O)=O)cc3)c3ccccc3c2=O)cc1` [Example 13, N-ethyl-N-(4-ethylphenyl)-2-(1-oxo-4-(4-sulfamoylphenyl)phthalazin-2(1H)-yl)acetamide] were, in that order, 30 to 80% and 10 to 20 µM. Take `CCN(C(=O)Cn1nc(C(=O)N(CC)c2cccc(Cl)c2)c2c3ccccc3n(C)c2c1=O)c1ccc2c(c1)OC(F)(F)O2` [Example 202, N-(3-chlorophenyl)-3-(2-((2,2-difluorobenzo[d][1,3]dioxol-5-yl)(ethyl)amino)-2-oxoethyl)-N-ethyl-5-methyl-4-oxo-4,5-dihydro-3H-pyridazino[4,5-b]indole-1-carboxamide]: the Emax is 30 to 80%. Take `CCN(C(=O)c1nn(-c2ccc(C(F)(F)F)cn2)c(=O)c2c1c1ccccc1n2C)c1ccccc1` [Example 193, N-ethyl-5-methyl-4-oxo-N-phenyl-3-(5-(trifluoromethyl)pyridin-2-yl)-4,5-dihydro-3H-pyridazino[4,5-b]indole-1-carboxamide]: the Emax is 30 to 80% and the EC50 is less than 10 µM. On to `COc1ccc2c(-c3ccc(C(N)=O)cc3)nn(CC(=O)N(C)c3ccc4c(c3)OC(F)(F)O4)c(=O)c2c1` [Example 83, 4-(3-(2-((2,2-difluorobenzo[d][1, 3]dioxol-5-yl)(methyl)amino)-2-oxoethyl)-6-methoxy-4-oxo-3,4-dihydrophthalazin-1-yl)benzamide], for which the Emax lay within 30 to 80%. For the molecule `Cc1nc2ccc(N(C)C(=O)Cn3nc(-c4cccc(C#N)c4)c4ccc(OC5CCOCC5)cc4c3=O)cc2o1` [Example 120, 2-(4-(3-cyanophenyl)-1-oxo-7-((tetrahydro-2H-pyran-4-yl)oxy)phthalazin-2(1H)-yl)-N-methyl-N-(2-methylbenzo[d]oxazol-6-yl)acetamide], the Emax was greater than 80% and the EC50 is less than 10 µM. As for `CCN(C(=O)c1nn(-c2ccc(C)cc2)c(=O)c2c1c1ccccc1n2Cc1ccccn1)c1ccccc1` [Example 226, N-ethyl-4-oxo-N-phenyl-5-(pyridin-2-ylmethyl)-3-(p-tolyl)-4,5-dihydro-3H-pyridazino[4,5-b]indole-1-carboxamide], the Emax lay within 30 to 80%. Still for that read-out and setting: for `CCN(C(=O)c1nn(C2CCCCC2)c(=O)c2c1c1ccccc1n2C)c1cccc(Cl)c1` [Example 204, N-(3-chlorophenyl)-3-cyclohexyl-N-ethyl-5-methyl-4-oxo-4,5-dihydro-3H-pyridazino[4,5-b]indole-1-carboxamide] the value was 30 to 80%. As for `CC(C)N(C(=O)c1nn(-c2ccccn2)c(=O)c2c1c1ccccc1n2C)c1ccccc1` [Example 186, N-isopropyl-5-methyl-4-oxo-N-phenyl-3-(pyridin-2-yl)-4,5-dihydro-3H-pyridazino[4,5-b]indole-1-carboxamide], the Emax is 10 to 30% and the EC50 was less than 10 µM. With `Cc1nc2ccc(N(C)C(=O)Cn3ncc4c(c3=O)c3ccccc3n4Cc3ccc(C#N)cc3)cc2o1` [Example 149, 2-(5-(4-cyanobenzyl)-1-oxo-1,5-dihydro-2H-pyridazino[4,5-b]indol-2-yl)-N-methyl-N-(2-methylbenzo[d]oxazol-6-yl)acetamide], the Emax lay within 30 to 80% and the EC50 is less than 10 µM. As for `CCN(C(=O)c1nn(-c2ccncc2)c(=O)c2c1c1ccccc1n2C)c1ccccc1` [Example 169, N-ethyl-5-methyl-4-oxo-N-phenyl-3-(pyridin-4-yl)-4,5-dihydro-3H-pyridazino[4,5-b]indole-1-carboxamide], the Emax was 30 to 80%. Regarding `CCc1ccc(N(CC)C(=O)Cn2nc(Cc3cccnc3)c3cc(Cl)c(Cl)cc3c2=O)cc1` [Example 38, 2-(6,7-dichloro-1-oxo-4-(pyridin-3-ylmethyl)phthalazin-2(1H)-yl)-N-ethyl-N-(4-ethylphenyl)acetamide], the Emax lay in the range of 30 to 80% and the concentration giving a half-maximal response (EC50) was less than 10 µM. Consider `CCN(C(=O)c1nn(-c2ccc(C)cc2)c(=O)c2c1c1ccccc1n2CC#N)c1ccccc1` [Example 223, 5-(cyanomethyl)-N-ethyl-4-oxo-N-phenyl-3-(p-tolyl)-4,5-dihydro-3H-pyridazino[4,5-b]indole-1-carboxamide], for which the Emax lay within 30 to 80%.

Turning to `CCc1ccc(N(CC)C(=O)Cn2nc(Cc3cccnc3)c3cc(OC)ccc3c2=O)cc1` [Example 36, N-ethyl-N-(4-ethylphenyl)-2-(6-methoxy-1-oxo-4-(pyridin-3-ylmethyl)phthalazin-2(1H)-yl)acetamide], the Emax lay within 30 to 80%. As to `CCN(C(=O)Cn1nc(-c2cccc(C#N)c2)c2ccc(OC)cc2c1=O)c1ccc2nc(C)oc2c1` [Example 81, 2-(4-(3-cyanophenyl)-7-methoxy-1-oxophthalazin-2(1H)-yl)-N-ethyl-N-(2-methylbenzo[d]oxazol-6-yl)acetamide], the Emax is greater than 80% and the EC50 was less than 10 µM. Take `CCOc1cc2c(=O)n(CC(=O)N(C)c3ccc4nc(C)oc4c3)nc(-c3cccc(F)c3)c2cc1Cl` [Example 121, 2-(6-chloro-7-ethoxy-4-(3-fluorophenyl)-1-oxophthalazin-2(1H)-yl)-N-methyl-N-(2-methylbenzo[d]oxazol-6-yl)acetamide]: the Emax is greater than 80%. As for `CCOc1ccc2c(-c3cccc(C#N)c3)nn(CC(=O)N(C)c3ccc4nc(C)oc4c3)c(=O)c2c1` [Example 109, 2-(4-(3-cyanophenyl)-7-ethoxy-1-oxophthalazin-2(1H)-yl)-N-methyl-N-(2-methylbenzo[d]oxazol-6-yl)acetamide], the Emax was greater than 80% and the EC50 is less than 10 µM.
